Experimental data from ChEMBL document CHEMBL1201862, “PubChem BioAssay data set” (2004).
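In this assay, cells in 96-well plates receive the compound at five concentrations for 48 hours. Endpoints are linearly interpolated between the surrounding concentrations. GI50: concentration for 50% inhibition of growth.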 Activity calls are given as the source filed them. Cut-off read from the data, not from the text of the source: active = GI50 up to about 1.1 µM and inactive = higher.

How the values were obtained:
Assay in all cases: inhibition of tumour cell growth, NCI panel, 48 h
TK-10 = tested on: TK-10
BT-549 = tested on: BT-549
LOX IMVI = tested on: LOX IMVI
A549 = tested on: A549
SF-539 = tested on: SF-539
SR = tested on: SR
HCT-116 = tested on: HCT-116
UACC-62 = tested on: UACC-62
Hs-578T = tested on: Hs-578T
HOP-92 = tested on: HOP-92
EKVX = tested on: EKVX
HCT-15 = tested on: HCT-15
SNB-75 = tested on: SNB-75
A498 = tested on: A498
OVCAR-4 = tested on: OVCAR-4
T47D = tested on: T47D
SK-MEL-5 = tested on: SK-MEL-5
PC-3 = tested on: PC-3
UACC-257 = tested on: UACC-257
SW-620 = tested on: SW-620
KM12 = tested on: KM12
CAKI-1 = tested on: CAKI-1
HOP-62 = tested on: HOP-62
COLO 205 = tested on: COLO 205
SK-MEL-28 = tested on: SK-MEL-28
SF-268 = tested on: SF-268
DU-145 = tested on: DU-145
SK-OV-3 = tested on: SK-OV-3
NCI-H23 = tested on: NCI-H23
MOLT-4 = tested on: MOLT-4
OVCAR-3 = tested on: OVCAR-3
MDA-N = tested on: MDA-N
Malme-3M = tested on: Malme-3M
U-251 = tested on: U-251
SN12C = tested on: SN12C
NCI-H460 = tested on: NCI-H460
HL-60 = tested on: HL-60
RPMI-8226 = tested on: RPMI-8226
IGROV-1 = tested on: IGROV-1
RXF 393 = tested on: RXF 393
HT-29 = tested on: HT-29
MCF7 = tested on: MCF7
ACHN = tested on: ACHN
MDA-MB-435 = tested on: MDA-MB-435
OVCAR-8 = tested on: OVCAR-8
HCC 2998 = tested on: HCC 2998
K562 = tested on: K562
M14 = tested on: M14
786-0 = tested on: 786-0
CCRF-CEM = tested on: CCRF-CEM
MDA-MB-231 = tested on: MDA-MB-231
NCI-H226 = tested on: NCI-H226
SNB-19 = tested on: SNB-19
UO-31 = tested on: UO-31
NCI/ADR-RES = tested on: NCI/ADR-RES
OVCAR-5 = tested on: OVCAR-5
SF-295 = tested on: SF-295
NCI-H522 = tested on: NCI-H522

SMILES: COC(=O)C1=C(O)C(C(=O)OC)[C@]2(O)[C@H](C(=O)OC)[C@H]1C[C@@H](c1ccc(O)cc1)[C@H]2C(=O)OC (stereo not given in full)
- GI50 (TK-10): 25 µM (inactive)
- GI50 (BT-549): 26.2 µM (inactive)
- GI50 (LOX IMVI): 29.2 µM (inactive)
- GI50 (A549): 32.5 µM (inactive)
- GI50 (SF-539): 30.3 µM (inactive)
- GI50 (SR): 23.2 µM (inactive)
- GI50 (HCT-116): 27.7 µM (inactive)
- GI50 (UACC-62): 31.3 µM (inactive)
- GI50 (Hs-578T): 26.1 µM (inactive)
- GI50 (HOP-92): 79.8 µM (inactive)
- GI50 (EKVX): 32.3 µM (inactive)
- GI50 (HCT-15): 26.1 µM
- GI50 (SNB-75): 20 µM (inactive)
- GI50 (A498): 33.3 µM (inactive)
- GI50 (OVCAR-4): 36.4 µM (inactive)
- GI50 (T47D): 23.9 µM (inactive)
- GI50 (SK-MEL-5): 37.3 µM (inactive)
- GI50 (PC-3): 19.9 µM (inactive)
- GI50 (UACC-257): 19.4 µM (inactive)
- GI50 (SW-620): 50.7 µM (inactive)
- GI50 (KM12): 21.8 µM (inactive)
- GI50 (CAKI-1): 21.2 µM (inactive)
- GI50 (HOP-62): 18 µM (inactive)
- GI50 (COLO 205): 31.2 µM (inactive)
- GI50 (SK-MEL-28): 41.8 µM (inactive)
- GI50 (SF-268): 30.3 µM (inactive)
- GI50 (DU-145): 23.1 µM (inactive)
- GI50 (SK-OV-3): 26.5 µM (inactive)
- GI50 (NCI-H23): 28.1 µM (inactive)
- GI50 (MOLT-4): 30.3 µM (inactive)
- GI50 (OVCAR-3): 11.5 µM (inactive)
- GI50 (MDA-N): 20.1 µM (inactive)
- GI50 (Malme-3M): 32.7 µM (inactive)
- GI50 (U-251): 18.3 µM (inactive)
- GI50 (SN12C): 17.7 µM (inactive)
- GI50 (NCI-H460): 23.7 µM (inactive)
- GI50 (HL-60): 27.2 µM (inactive)
- GI50 (RPMI-8226): 27.9 µM (inactive)
- GI50 (IGROV-1): 41.2 µM (inactive)
- GI50 (RXF 393): 15.8 µM (inactive)
- GI50 (HT-29): 27.5 µM (inactive)
- GI50 (MCF7): 22.6 µM (inactive)
- GI50 (ACHN): 36.4 µM (inactive)
- GI50 (MDA-MB-435): 18.7 µM (inactive)
- GI50 (OVCAR-8): 33.4 µM (inactive)
- GI50 (HCC 2998): 19.9 µM (inactive)
- GI50 (K562): 22.8 µM (inactive)
- GI50 (M14): 25.4 µM (inactive)
- GI50 (786-0): 39 µM (inactive)
- GI50 (CCRF-CEM): 54 µM (inactive)
- GI50 (MDA-MB-231): 23.1 µM (inactive)
- GI50 (NCI-H226): 44.4 µM (inactive)
- GI50 (SNB-19): 30.2 µM (inactive)
- GI50 (UO-31): 45 µM (inactive)
- GI50 (NCI/ADR-RES): 30.1 µM (inactive)
- GI50 (OVCAR-5): 23.8 µM (inactive)
- GI50 (SF-295): 22 µM (inactive)

SMILES: Cc1ccc2c(O)cc(-c3ccsc3)nc2n1
- GI50 (TK-10): 26.5 µM (inactive)
- GI50 (BT-549): 4.46 µM (inactive)
- GI50 (LOX IMVI): 3.62 µM (inactive)
- GI50 (A549): 5.24 µM (inactive)
- GI50 (NCI-H522): 3.67 µM (inactive)
- GI50 (SF-539): 5.93 µM (inactive)
- GI50 (SR): 0.361 µM (active)
- GI50 (HCT-116): 3.62 µM (inactive)
- GI50 (UACC-62): 4.61 µM (inactive)
- GI50 (Hs-578T): 3.82 µM (inactive)
- GI50 (HOP-92): > 24.6 µM (inactive)
- GI50 (EKVX): 16.9 µM (inactive)
- GI50 (HCT-15): 1.68 µM
- GI50 (SNB-75): 3.14 µM (inactive)
- GI50 (A498): 4.07 µM (inactive)
- GI50 (OVCAR-4): > 29.9 µM (inactive)
- GI50 (T47D): 5.01 µM (inactive)
- GI50 (SK-MEL-5): 2.71 µM (inactive)
- GI50 (PC-3): 4.81 µM (inactive)
- GI50 (UACC-257): 16.5 µM (inactive)
- GI50 (SW-620): 1.75 µM (inactive)
- GI50 (KM12): 4.33 µM (inactive)
- GI50 (CAKI-1): 6.95 µM (inactive)
- GI50 (HOP-62): 10.8 µM (inactive)
- GI50 (COLO 205): 3.21 µM (inactive)
- GI50 (SK-MEL-28): 7.23 µM (inactive)
- GI50 (SF-268): 14.4 µM (inactive)
- GI50 (DU-145): 9.79 µM (inactive)
- GI50 (SK-OV-3): 10 µM (inactive)
- GI50 (NCI-H23): 2.77 µM (inactive)
- GI50 (MOLT-4): 3.56 µM (inactive)
- GI50 (OVCAR-3): 6.46 µM (inactive)
- GI50 (MDA-N): 0.454 µM (active)
- GI50 (Malme-3M): 3.66 µM (inactive)
- GI50 (U-251): 4.65 µM (inactive)
- GI50 (SN12C): 5.83 µM (inactive)
- GI50 (NCI-H460): 4.01 µM (inactive)
- GI50 (HL-60): 2.17 µM (inactive)
- GI50 (RPMI-8226): 2.2 µM (inactive)
- GI50 (IGROV-1): 4.74 µM (inactive)
- GI50 (RXF 393): 7.53 µM (inactive)
- GI50 (HT-29): 5.62 µM (inactive)
- GI50 (MCF7): 3.08 µM (inactive)
- GI50 (ACHN): 6.98 µM (inactive)
- GI50 (MDA-MB-435): 0.597 µM (active)
- GI50 (OVCAR-8): 4.06 µM (inactive)
- GI50 (HCC 2998): 5.9 µM (inactive)
- GI50 (K562): 2.9 µM (inactive)
- GI50 (M14): 3.21 µM (inactive)
- GI50 (786-0): 4.58 µM (inactive)
- GI50 (CCRF-CEM): 6.18 µM (inactive)
- GI50 (MDA-MB-231): 11.5 µM (inactive)
- GI50 (NCI-H226): 4.13 µM (inactive)
- GI50 (SNB-19): 6.59 µM (inactive)
- GI50 (UO-31): 2.32 µM (inactive)
- GI50 (NCI/ADR-RES): 2.29 µM (inactive)
- GI50 (OVCAR-5): 15.8 µM (inactive)
- GI50 (SF-295): 3.44 µM (inactive)
